# Columns and labels:
# [1] = biological target: Recombinant SHP-1 protein (Homo sapiens, UniProt P29350); assay: SHP-1 phosphatase activity assay (RediPlate 96 EnzChek Tyrosine Phosphatase Assay kit); type: biochemical; settings: SC derivatives at 1 μM for 2 hr; recombinant SHP-1 25 ng; control DMSO = 100; mean±SD (N=3)
# Procedure: Effects of SC Derivatives on Phosphatase Activity in Recombinant SHP-1 RediPlate 96 EnzChek Tyrosine Phosphatase Assay kit (R-22067) was used for SHP-1 activity assay (Molecular Probes). Recombinant SHP-1 protein (25 ng) was reacted with SC derivatives at 1 μM for 2 hr. Then the SHP-1 phosphatase activity assay was performed according to the user's manual and the absorbance was measured at 465 nm. The control group was DMSO, which functioned as the solvent of the SC derivatives. The values were expressed by mean±SD (N=3).
# [2] = tested on: PLC5 cells (a hepatocellular carcinoma cell line); assay: Cytotoxicity, MTT cell viability assay; type: cell-based; settings: 72 h exposure
# Procedure: PLC5 cells (a hepatocellular carcinoma cell line) were seeded at 5×10^3 cells per well in 96-well plates. Then, cells were exposed to SC derivatives at the indicated doses for 72 h. After that, cells were incubated with MTT (1 mg/ml) (Sigma-Aldrich, St. Louis, Mo.) for 2 h at 37° C. Cell viability was then assessed by measuring the absorbance at 570 nm using a microplate reader.
# Sequence of Recombinant SHP-1 protein (P29350 whole entry): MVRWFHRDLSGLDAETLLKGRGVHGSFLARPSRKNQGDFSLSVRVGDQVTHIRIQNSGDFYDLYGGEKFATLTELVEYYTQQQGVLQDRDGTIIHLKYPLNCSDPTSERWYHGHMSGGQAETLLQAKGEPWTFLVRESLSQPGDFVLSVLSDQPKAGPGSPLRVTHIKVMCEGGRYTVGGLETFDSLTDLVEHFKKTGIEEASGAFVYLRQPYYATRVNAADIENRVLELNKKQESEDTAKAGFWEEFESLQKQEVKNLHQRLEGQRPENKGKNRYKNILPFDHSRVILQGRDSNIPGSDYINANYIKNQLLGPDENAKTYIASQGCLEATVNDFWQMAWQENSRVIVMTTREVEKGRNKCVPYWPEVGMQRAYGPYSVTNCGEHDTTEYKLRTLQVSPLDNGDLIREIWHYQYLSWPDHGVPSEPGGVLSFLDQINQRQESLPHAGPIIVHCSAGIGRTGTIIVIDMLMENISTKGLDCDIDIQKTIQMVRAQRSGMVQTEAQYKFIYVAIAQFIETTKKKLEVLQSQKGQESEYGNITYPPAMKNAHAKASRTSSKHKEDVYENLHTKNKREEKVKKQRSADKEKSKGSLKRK
Compound,SHP-1 Activity (% of control) [1],IC50 [2] [nM]
"N#Cc1ccc(Oc2ccc3c(c2)N(C(=O)Nc2ccc(Cl)c(C(F)(F)F)c2)CCO3)cc1 [compound 157, N-(4-chloro-3-(trifluoromethyl)phenyl)-6-(4-cyanophenoxy)-2H-benzo[b][1,4]oxazine-4(3H)-carboxamide]",106.27 ± 6.28 % of control,1760
"N#Cc1ccc(Oc2ccc3c(c2)N(C(=O)Nc2cccc(C(F)(F)F)c2)CCO3)cc1 [compound 159, 6-(4-cyanophenoxy)-N-(3-(trifluoromethyl)phenyl)-2H-benzo[b][1,4]oxazine-4(3H)-carboxamide]",98.04 ± 8.80 % of control,2560
"C#Cc1cccc(NC(=O)N2CCOc3ccc(Oc4ccc(C#N)cc4)cc32)c1 [compound 161, 6-(4-cyanophenoxy)-N-(3-ethynylphenyl)-2H-benzo[b][1,4]oxazine-4(3H)-carboxamide]",140.58 ± 11.39 % of control,> 10000
"C#Cc1cccc(NC(=O)N2CCOc3cc(Oc4ccc(C#N)cc4)ccc32)c1 [compound 162, 7-(4-cyanophenoxy)-N-(3-ethynylphenyl)-2H-benzo[b][1,4]oxazine-4(3H)-carboxamide]",141.39 ± 15.44 % of control,3060
"N#Cc1ccc(Oc2ccc3c(c2)OCCN3C(=O)Nc2cccc(C(F)(F)F)c2)cc1 [compound 163, 7-(4-cyanophenoxy)-N-(3-(trifluoromethyl)phenyl)-2H-benzo[b][1,4]oxazine-4(3H)-carboxamide]",142.36 ± 2.16 % of control,2510
"N#Cc1ccc(Oc2ccc3c(c2)OCCN3C(=O)Nc2cc(C(F)(F)F)cc(C(F)(F)F)c2)cc1 [compound 164, N-(3,5-bis(trifluoromethyl)phenyl)-7-(4-cyanophenoxy)-2H-benzo[b][1,4]oxazine-4(3H)-carboxamide]",83.70 ± 10.90 % of control,> 10000
"N#Cc1ccc(Oc2ccc3c(c2)OCCN3C(=O)Nc2ccc(Cl)c(C(F)(F)F)c2)cc1 [compound 165, N-(4-chloro-3-(trifluoromethyl)phenyl)-7-(4-cyanophenoxy)-2H-benzo[b][1,4]oxazine-4(3H)-carboxamide]",169.27 ± 1.19 % of control,> 10000
"C#Cc1cccc(NC(=O)Nc2ccc(Oc3ccc(CC#N)cc3)cc2)c1 [compound 170, 1-(4-(4-(cyanomethyl)phenoxy)phenyl)-3-(3-ethynylphenyl)urea]",101.42 ± 7.86 % of control,> 10000
"Cc1cc(Oc2cc(NC(=O)Nc3cc(C(F)(F)F)cc(C(F)(F)F)c3)ccc2Cl)ccc1C#N [compound 176, 1-(3,5-bis(trifluoromethyl)phenyl)-3-(4-chloro-3-(4-cyano-3-methylphenoxy)phenyl)urea]",112.57 ± 3.69 % of control,650
"Cc1cc(Oc2cc(NC(=O)Nc3ccc(F)c(C(F)(F)F)c3)ccc2Cl)ccc1C#N [compound 177, 1-(4-chloro-3-(4-cyano-3-methylphenoxy)phenyl)-3-(4-fluoro-3-(trifluoromethyl)phenyl)urea]",103.52 ± 1.13 % of control,> 10000
"N#Cc1ccc(Oc2cc(NC(=O)Nc3cc(C(F)(F)F)cc(C(F)(F)F)c3)ccc2Cl)cc1Cl [compound 180, 1-(3,5-bis(trifluoromethyl)phenyl)-3-(4-chloro-3-(3-chloro-4-cyanophenoxy)phenyl)urea]",105.52 ± 0.87 % of control,780
"N#Cc1ccc(Oc2cc(NC(=O)Nc3cc(C(F)(F)F)cc(C(F)(F)F)c3)ccc2Cl)cn1 [compound 182, 1-(3,5-bis(trifluoromethyl)phenyl)-3-(4-chloro-3-((6-cyanopyridin-3-yl)oxy)phenyl)urea]",110.50 ± 6.08 % of control,560

# More lines, main results first:
SHP-1 Activity (% of control) [1],Compound,IC50 [2] [nM]
336.99 ± 50.76 % of control,"N#Cc1ccc(Oc2cc(NC(=O)Nc3cc(C(F)(F)F)cc(C(F)(F)F)c3)ccc2F)cc1 [compound 152, 1-(3,5-bis(trifluoromethyl)phenyl)-3-(3-(4-cyanophenoxy)-4-fluorophenyl) urea]",340
135.54 ± 5.11 % of control,"N#CCc1ccc(NC(=O)Nc2ccc(F)c(Oc3ccc(C#N)cc3)c2)cc1 [compound 153, 1-(4-(cyanomethyl)phenyl)-3-(3-(4-cyanophenoxy)-4-fluorophenyl)urea]",1830
115.12 ± 3.84 % of control,"N#Cc1ccc(Oc2cc(NC(=O)Nc3ccc(F)c(C(F)(F)F)c3)ccc2F)cc1 [compound 154, 1-(3-(4-cyanophenoxy)-4-fluorophenyl)-3-(4-fluoro-3-(trifluoromethyl)phenyl)urea]",620
112.47 ± 7.98 % of control,"N#Cc1ccc(Oc2ccc3c(c2)N(C(=O)Nc2ccc(F)c(C(F)(F)F)c2)CCO3)cc1 [compound 156, 6-(4-cyanophenoxy)-N-(4-fluoro-3-(trifluoromethyl)phenyl)-2H-benzo[b][1,4]oxazine-4(3H)-carboxamide]",1870
102.07 ± 3.47 % of control,"N#Cc1ccc(Oc2ccc3c(c2)N(C(=O)Nc2cc(C(F)(F)F)cc(C(F)(F)F)c2)CCO3)cc1 [compound 158, N-(3,5-bis(trifluoromethyl)phenyl)-6-(4-cyanophenoxy)-2H-benzo[b][1,4]oxazine-4(3H)-carboxamide]",3310
116.47 ± 6.60 % of control,"N#CCc1ccc(NC(=O)N2CCOc3ccc(Oc4ccc(C#N)cc4)cc32)cc1 [compound 160, N-(4-(cyanomethyl)phenyl)-6-(4-cyanophenoxy)-2H-benzo[b][1,4]oxazine-4(3H)-carboxamide]",5130
51.89 ± 8.16 % of control,"N#Cc1ccc(Oc2ccc3c(c2)OCCN3C(=O)Nc2ccc(F)c(C(F)(F)F)c2)cc1 [compound 166, 7-(4-cyanophenoxy)-N-(4-fluoro-3-(trifluoromethyl)phenyl)-2H-benzo[b][1,4]oxazine-4(3H)-carboxamide]",1320
110.58 ± 10.14 % of control,"N#CCc1ccc(NC(=O)N2CCOc3cc(Oc4ccc(C#N)cc4)ccc32)cc1 [compound 167, N-(4-(cyanomethyl)phenyl)-7-(4-cyanophenoxy)-2H-benzo[b][1,4]oxazine-4(3H)-carboxamide]",2550
147.25 ± 78.63 % of control,"N#CCc1ccc(Oc2ccc(NC(=O)Nc3ccc(F)c(C(F)(F)F)c3)cc2)cc1 [compound 168, 1-(4-(4-(cyanomethyl)phenoxy)phenyl)-3-(4-fluoro-3-(trifluoromethyl)phenyl)urea]",1070
126.25 ± 1.46 % of control,"N#CCc1ccc(NC(=O)Nc2ccc(Oc3ccc(CC#N)cc3)cc2)cc1 [compound 169, 1-(4-(4-(cyanomethyl)phenoxy)phenyl)-3-(4-(cyanomethyl)phenyl)urea]",> 10000
116.66 ± 17.26 % of control,"N#CCc1ccc(Oc2ccc(NC(=O)Nc3ccc(Cl)c(C(F)(F)F)c3)cc2)cc1 [compound 171, 1-(4-chloro-3-(trifluoromethyl)phenyl)-3-(4-(4-(cyanomethyl)phenoxy)phenyl)urea]",880
215.34 ± 12.22 % of control,"N#CCc1ccc(Oc2ccc(NC(=O)Nc3cc(C(F)(F)F)cc(C(F)(F)F)c3)cc2)cc1 [compound 172, 1-(3,5-bis(trifluoromethyl)phenyl)-3-(4-(4-(cyanomethyl)phenoxy)phenyl) urea]",410
110.75 ± 1.18 % of control,"N#CCc1ccc(Oc2ccc(NC(=O)Nc3cccc(C(F)(F)F)c3)cc2)cc1 [compound 173, 1-(4-(4-(cyanomethyl)phenoxy)phenyl)-3-(3-(trifluoromethyl)phenyl)urea]",> 10000
203.95 ± 30.20 % of control,"Cc1cc(Oc2cc(NC(=O)Nc3cccc(C(F)(F)F)c3)ccc2Cl)ccc1C#N [compound 174, 1-(4-chloro-3-(4-cyano-3-methylphenoxy)phenyl)-3-(3-(trifluoromethyl)phenyl)urea]",1460
233.37 ± 36.5 % of control,"Cc1cc(Oc2cc(NC(=O)Nc3ccc(Cl)c(C(F)(F)F)c3)ccc2Cl)ccc1C#N [compound 175, 1-(4-chloro-3-(4-cyano-3-methylphenoxy)phenyl)-3-(4-chloro-3-(trifluoromethyl)phenyl)urea]",1200
106.69 ± 9.47 % of control,"N#Cc1ccc(Oc2cc(NC(=O)Nc3cccc(C(F)(F)F)c3)ccc2Cl)cc1Cl [compound 178, 1-(4-chloro-3-(3-chloro-4-cyanophenoxy)phenyl)-3-(3-(trifluoromethyl)phenyl)urea]",1490
99.11 ± 7.09 % of control,"N#Cc1ccc(Oc2cc(NC(=O)Nc3ccc(Cl)c(C(F)(F)F)c3)ccc2Cl)cc1Cl [compound 179, 1-(4-chloro-3-(3-chloro-4-cyanophenoxy)phenyl)-3-(4-chloro-3-(trifluoromethyl)phenyl)urea]",950
106.88 ± 3.58 % of control,"N#Cc1ccc(Oc2cc(NC(=O)Nc3ccc(F)c(C(F)(F)F)c3)ccc2Cl)cc1Cl [compound 181, 1-(4-chloro-3-(3-chloro-4-cyanophenoxy)phenyl)-3-(4-fluoro-3-(trifluoromethyl)phenyl)urea]",930

# Reference: patent US10745346B2, “Agonists of protein tyrosine phosphatase SHP-1” (priority 2015, dated 2020)
